According to US20230277669A1, “USES OF UROLITHINS” (Amazentis SA, priority 2022, published 2023):

Test system: AOM-induced colon tumors
Test: AOM-induced tumorigenesis with UA-containing diets
Format: in vivo, FVB mice
Excerpt: Oral UA confers anti-tumor effects in murine colorectal cancer in a T-cell dependent manner. (FIG. 1A) Schematic representation of AOM model and different UA containing diets. (FIG. 1B) Representative images of swiss-roll sections from AOM-induced colon tumors. Scale bars are 2 mm (upper row) and 300 µm (lower row), respectively. (FIG. 1C) Tumor incidence of AOM-induced tumors receiving different UA-containing diets; n=4/5/5. Data are mean ±SD, depicting one of two independent experiments. *p < 0.05 by two-sided t-test. (FIG. 1D) Average lesion size of AOM-induced tumors receiving different UA-containing diets; n=4/5/5. Data are mean ±SD, depicting one of two independent experiments. *p < 0.05 by two-sided t-test. (FIG. 1E) Relative number of CD45^+CD3^+ T cells in colons of AOM-treated mice at week 24 (n>7, pooled from two independent experiments). Data are mean ± SD, **p < 0.01 by two-sided t-test. (FIG. 1F) Organoid treatment scheme. APTK-organoids were incubated in the presence of UA or DMSO for the indicated time points, prior to flow cytometric analysis. (FIG. 1G) Quantification of lysosome formation as assessed by lysotracker MFI via flow cytometry after 24 h incubation at the presence of various UA concentrations (n=5/4/4). Depicts one out of two indepdent experiments. Data are mean ± SD, *p < 0.05; **p < 0.01 as established via two-sided t-test. (FIG. 1H) Mitotracker signal of APTK organoids incubated for 24 h at the presence of UA in vitro (n=4/4/4) and antigen presentation via MHC-I molecules (I) after 48 h of treatment (n=4/4/4). Results from one out of two independent experiments are shown. Data are mean ± SD, statistical analysis was performed via two-sided t-test, *p < 0.05; **p < 0.01, ****p < 0.0001. (FIG. 1I) Upregulation of MHC-I by UA. (FIG. 1J) Experimental setup of oral UA administration in mice with established APTK-s.c. tumors. Treatment diet was initiated eleven days after tumor injection and maintained until the end of the experiment. (FIG. 1K) Growth curve of mice subcutaneously transplanted with APTK tumors, receiving either UA-containing or control food (n=7 per group). Data are mean ± SD, ***p <0.001 by two-sided t-test. One out of two independent experiments are shown. (FIG. 1L) End point tumor weight, (FIG. 1M) CD8+ T cell infiltration in APTK-s.c. tumors assessed by flow cytometry, normalising total number of CD8^+ T cells to tumor weight (n=7 per group). Data are mean ± SD, statistical analysis was performed via Mann-Whitney test, *p < 0.05 and ***p <0.001. (FIG. 1N) Size of subcutaneous APTK tumors in Rag1^-/- mice receiving UA-containing or control food (n=7 per group). Treatment was initiated as depicted in FIG. 1J. Data are mean +-SD, depicting one out of two independent experiments. […]

[1] = high-dose UA diet (2.28 g/kg), 18 weeks

`O=c1oc2cc(O)ccc2c2ccc(O)cc12` [Urolithin A] was tested, and the tumor incidence [1] was “significant decrease”, the tumor size [1] was “significant decrease” and the “infiltration of CD3+ T cells” value (high-dose UA diet, colons at week 24) was “increased infiltration of CD3^+T cells”. For the same molecule, the tumor load (low-dose UA diet (0.57 g/kg), 18 weeks) was “did not have an effect on tumor load”.
